# Test results from patent publication US8513417B2, “Method for synthesis of nitroxyl radical” (Kyushu University, National University Corporation, priority 2008, dated 2013).
# How the values were obtained:
# [1] = Reactivity of nitroxyl radical to hydroxyl radical (UV/H2O2, X-band ESR); assay type: physicochemical; conditions: nitroxyl radical 25 μM, H2O2 10 mM, UV 100 to 120 mW/cm^2, X-band ESR
# Method: In order to examine reactivities of the following 3 types of TEMPO-based nitroxyl radical derivatives, in which substituents at position-2 and position-6 in one derivative are different from those in another derivative, to free radical:
# [drawing 49] according to the method of Takeshita et al. (Biochimica et Biophysica Acta, 1573, 156-164 (2002)), the following procedure was carried out. Nitroxyl radical (25 μM) was mixed with H2O2 (10 mM), and thereafter a specific amount of the mixture was collected in a capillary and irradiated with UV (100 to 120 mW/cm^2) to generate OH radical. The reactivities thereof to the nitroxyl radical were examined using X-band ESR.
# [2] = Reactivity of nitroxyl radical to ascorbic acid (decrease in ESR signal intensity over time); assay type: physicochemical; conditions: nitroxyl radical 10 to 50 μM, ascorbic acid 100 μM to 2 mM, X-band ESR
# Method: It has been reported that nitroxyl radical also reacts with a reduction substance (Couet, W. R., Tetrahedron, 41(7), 1165-1172 (1985); Finkelstein, E., Biochimica et Biophysica Acta, 802, 90-98 (1984)). Therefore, the following procedure was carried out. After nitroxyl radical (10 to 50 μM) was mixed with ascorbic acid (100 μM to 2 mM), a specific amount of the mixture was collected in a capillary, and thereafter the measurement was started. Using X-band ESR, decrease in ESR signal intensity was observed over time, thereby examining the reactivity to ascorbic acid, which is a typical reduction substance in the living body.
SMILES,"reactivities to hydroxyl radical, rank order [1]","reactivities to ascorbic acid, rank order [2]",reactivity to ascorbic acid ([2]; FIG. 2),melting point
"[O]N1C2(CCOCC2)CC(=O)CC12CCOCC2 [Compound 3, 2,6-dispiro-1′,1″-dipyran-piperidone-1-oxyl]",Compound 1>Compound 3>Compound 2,Compound 3>Compound 2>Compound 1,very rapidly reacts with ascorbic acid,
CC(C)(C)C1CC(=O)CC(C(C)(C)C)N1 (stereo not shown),,,,55.4 °C
